# Experiments:
# MOLM-13 cells = assay: Cell proliferation assay (alamarBlue), MOLM-13; format: cell-based; conditions: 96 hours incubation, inhibition of cell proliferation
# Outline: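 Cells in RPMI1640/10% FCS read by alamarBlue fluorescence (ex 530, em 590 nm) after overnight 37 °C incubation, then treated at 1E-5 to 1E-8 M for 96 h. Pre-treatment values subtracted from endpoint values and compared with buffer-only wells; IC50 is 50% proliferation inhibition.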
# MOLP-8 cells = assay: Cell proliferation assay (alamarBlue), MOLP-8; format: cell-based; conditions: Homo sapiens, 120 hours incubation, inhibition of cell proliferation
# Experimental: (§1) In accordance with the invention, the capability of the substances to inhibit cell proliferation was determined Cell viability was determined using the alamarBlue® reagent (Invitrogen) in a Victor X3 Multilabel Reader (Perkin Elmer). The excitation wavelength was 530 nm and the emission wavelenth […].
# The MOLP-8 cells (DSMZ, ACC 569) were sown at a concentration of 4000 cells/well in 100 μl growth medium (RPMI1640, 20% FCS) on 96-well microtitre plates.
# (§2) After an overnight incubation at 37° C., the fluorescence values (CI values) were determined. The plates were then treated with various substance dilutions (1E-5 M, 3E-6 M, 1E-6M, 3E-7 M, 1E-7 M, 3E-8 M, 1E-8 M) and incubated at 37° C. for 72 (MV4-11-, LOX-IMVI cells), 96 (MOLM-13-, B16F10-, MDA-MB-431-, Caov-3 cells), 120 (MOLP-8-, KMS-12-PE cells) or 168 (LAPC-4 cells) hours. The fluorescence values (CO values) were then determined. For the data analysis, the CI values were subtracted from the CO values and the results were compared between cells treated with different dilutions of the substance or with buffer solution only. These were used to calculate the IC 50 values (substance concentration required for 50% inhibition of cell proliferation).
# BRD4 (BD1) = target: T1, BRD4 (BD1) (Homo sapiens, UniProt O60885); assay: Binding assay BRD4/acetylated peptide H4 (TR-FRET protein-protein interaction assay)
# T1 construct: with relatively long constructs also being possible, preferably amino acids 44-168; made in house; host or cells: E. coli
# Outline: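 His6-BRD4 BD1 (aa 67-152, E. coli), usually 10 nM, with biotinylated tetra-acetylated H4 peptide in HEPES pH 7.5 buffer; 11 compound concentrations 0.1 nM–20 μM in duplicate, 10 min preincubation, 1 h at 22 °C then ≥3 h at 4 °C. TR-FRET 665/620 ratio; IC50 by 4-parameter fit.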
# LOX-IMVI cells = assay: Cell proliferation assay (alamarBlue), LOX-IMVI; format: cell-based; conditions: Homo sapiens, 72 hours incubation, inhibition of cell proliferation
# Experimental: as §1
# The LOX-IMVI cells (NCI-60) were sown at a concentration of 1000 cells/well in 100 μl growth medium (RPMI1640, 10% FCS) on 96-well microtitre plates.
# as §2
# MV4-11 cells = assay: Cell proliferation assay (alamarBlue), MV4-11; format: cell-based; conditions: Homo sapiens, 72 hours incubation, inhibition of cell proliferation
# Experimental: as §1
# The MV4-11 cells (ATCC, CRL 9591) were sown at a concentration of 5000 cells/well in 100 μl growth medium (RPMI1640, 10% FCS) on 96-well microtitre plates.
# as §2
# Caov-3 cells = assay: Cell proliferation assay (alamarBlue), Caov-3; format: cell-based; conditions: Homo sapiens; inhibition of cell proliferation, Caov-3 (ovarian carcinoma), 96 hours
# Experimental: as §1
# The MDA-MB-231 cells (DSMZ, ACC 732) were sown at a concentration of 4000 cells/well in 100 μl growth medium (DMEM/Ham's F12 medium, 10% FCS) on 96-well microtitre plates. The Caov-3 cells (ATCC, HTB-75) were sown at a concentration of 2000 cells/well in 100 μl growth medium (MEM Earle's medium, 10% FCS) on 96-well microtitre plates.
# as §2
# KMS-12-PE cells = assay: Cell proliferation assay (alamarBlue), KMS-12-PE; format: cell-based; conditions: Homo sapiens, 120 hours incubation, inhibition of cell proliferation
# Experimental: as §1
# The KMS-12-PE cells (DSMZ, ACC 606) were sown at a concentration of 4000 cells/well in 100 μl growth medium (RPMI1640, 20% FCS) on 96-well microtitre plates.
# as §2
IC50 (MOLM-13 cells; Homo sapiens),IC50 (BRD4 (BD1)),IC50 (MV4-11 cells),IC50 (MOLM-13 cells),SMILES,IC50 (MOLP-8 cells),IC50 (LOX-IMVI cells),IC50 (Caov-3 cells),IC50 (KMS-12-PE cells)
> 10000 nM,1160 nM,,,"CNC(=O)N1N=C(c2ccc(-c3sc(C)nc3C)cc2)c2cc(OC)c(OC)cc2C[C@H]1C (single isomer, unassigned) [Example 46.2]",9470 nM,,,
60 nM,30 nM,20 nM,,"CNC(=O)N1N=C(c2ccc(-n3nc(-c4ccccc4)cc3C)cc2)c2cc(OC)c(OC)cc2C[C@@H]1C [Example 147.1, (4S)-7,8-dimethoxy-N,4-dimethyl-1-[4-(5-methyl-3-phenyl-1H-pyrazol-1-yl)phenyl]-4,5-dihydro-3H-2,3-benzodiazepine-3-carboxamide]",20 nM,510 nM,80 nM,30 nM
240 nM,50 nM,140 nM,,"CNC(=O)N1N=C(c2ccc(-c3cnoc3)cc2)c2cc(OC)c(OC)cc2CC1C (racemic) [Example 52, (±)-1-[4-(isoxazol-4-yl)phenyl]-7,8-dimethoxy-N-dimethyl-4,5-dihydro-3H-2,3-benzodiazepine-3-carboxamide]",150 nM,450 nM,350 nM,130 nM
150 nM,20 nM,,,"CNC(=O)N1N=C(c2ccc(N3CC(F)C3)cc2)c2cc(OC)c(OC)cc2C[C@@H]1C [Example 129.2, (4S)-1-[4-(3-fluoroazetidin-1-yl)phenyl]-7,8-dimethoxy-N,4-dimethyl-4,5-dihydro-3H-2,3-benzodiazepine-3-carboxamide]",80 nM,,,
180 nM,50 nM,80 nM,,"CNC(=O)N1N=C(c2ccc(N3CCN(C(=O)C(F)(F)F)CC3)cc2)c2cc(OC)c(OC)cc2CC1C (racemic) [Example 133, (±)-7,8-dimethoxy-N,4-dimethyl-1-{4-[4-(trifluoroacetyl)piperazin-1-yl]phenyl}-4,5-dihydro-3H-2,3-benzodiazepine-3-carboxamide]",70 nM,170 nM,180 nM,80 nM
250 nM,40 nM,70 nM,,"CNC(=O)N1N=C(c2ccc(-c3cccc(C(=O)N4CCCC4)c3)cc2)c2cc(OC)c(OC)cc2CC1C (racemic) [Example 96, (±)-7,8-dimethoxy-N,4-dimethyl-1-[3′-(pyrrolidin-1-ylcarbonyl)biphenyl-4-yl]-4,5-dihydro-3H-2,3-benzodiazepine-3-carboxamide]",90 nM,220 nM,170 nM,70 nM
200 nM,50 nM,120 nM,,"CNC(=O)N1N=C(c2ccc(N3CCN(S(C)(=O)=O)CC3)cc2)c2cc(OC)c(OC)cc2CC1C (racemic) [Example 135, (±)-7,8-dimethoxy-N,4-dimethyl-1-{4-[4-(methylsulphonyl)piperazin-1-yl]phenyl}-4,5-dihydro-3H-2,3-benzodiazepine-3-carboxamide]",130 nM,360 nM,300 nM,120 nM
90 nM,210 nM,190 nM,,"CNC(=O)N1N=C(c2ccc(-c3c(C)noc3C)cc2)c2cc(Cl)c(OC)cc2CC1C (racemic) [Example 157, (±)-8-chloro-1-[4-(3,5-dimethylisoxazol-4-yl)-phenyl]-7-methoxy-N,4-dimethyl-4,5-dihydro-3H-2,3-benzodiazepine-3-carboxamide]",120 nM,580 nM,420 nM,240 nM
2340 nM,250 nM,,,"CNC(=O)N1N=C(c2ccc(Cl)cc2)c2cc(-n3nc(C)cc3C)ccc2CC1C (racemic) [Example 174, (±)-1-(4-Chlorophenyl)-8-(3,5-dimethyl-1H-pyrazol-1-yl)-N,4-dimethyl-4,5-dihydro-3H-2,3-benzodiazepine-3-carboxamide]",2030 nM,,,
230 nM,30 nM,,,"CNC(=O)N1N=C(c2ccc(N3CCC3)cc2)c2cc(OC)c(OC)cc2CC1C (racemic) [Example 128, (±)-1-[4-(azetidin-1-yl)phenyl]-7,8-dimethoxy-N,4-dimethyl-4,5-dihydro-3H-2,3-benzodiazepine-3-carboxamide]",100 nM,390 nM,320 nM,100 nM
100 nM,30 nM,60 nM,,"CNC(=O)N1N=C(c2ccc(N3CCOCC3)cc2)c2cc(OC)c(OC)cc2C[C@@H]1C [Example 7.2, (4S)-7,8-dimethoxy-N,4-dimethyl-1-[4-(morpholin-4-yl)phenyl]-4,5-dihydro-3H-2,3-benzodiazepine-3-carboxamide]",50 nM,190 nM,,50 nM
240 nM,30 nM,,,"CNC(=O)N1N=C(c2ccc(-c3c(C)noc3C)cc2)c2cc(OCCCN3CCOCC3)ccc2CC1C (racemic) [Example 169, (±)-1-[4-(3,5-Dimethylisoxazol-4-yl)phenyl]-N,4-dimethyl-8-[3-(morpholin-4-yl)propoxy]-4,5-dihydro-3H-2,3-benzodiazepine-3-carboxamide]",120 nM,410 nM,370 nM,120 nM
390 nM,110 nM,220 nM,,"CNC(=O)N1N=C(c2ccc(-c3c(C)noc3C)cc2)c2cc(O)ccc2CC1C (racemic) [Example 168, (±)-1-[4-(3,5-Dimethylisoxazol-4-yl)phenyl]-8-hydroxy-N,4-dimethyl-4,5-dihydro-3H-2,3-benzodiazepine-3-carboxamide]",,,,
3240 nM,310 nM,,,CNC(=O)N1N=C(c2ccc(Cl)cc2)c2cc(OCc3cccc(C)n3)ccc2CC1C (racemic) [Example 167],2950 nM,,,
500 nM,70 nM,,,"CNC(=O)N1N=C(c2ccc(-c3ccc(S(=O)(=O)NC4CC4)cc3)cc2)c2cc(OC)c(OC)cc2CC1C (racemic) [Example 118, (±)-1-[4′-(cyclopropylsulphamoyl)-biphenyl-4-yl]-7,8-dimethoxy-N,4-dimethyl-4,5-dihydro-3H-2,3-benzodiazepine-3-carboxamide]",,,,
350 nM,50 nM,,,"CNC(=O)N1N=C(c2ccc(N3CCOC3=O)cc2)c2cc(OC)c(OC)cc2CC1C (racemic) [Example 34, (±)-7,8-Dimethoxy-N,4-dimethyl-1-[4-(2-oxooxazolidin-3-yl)phenyl]-4,5-dihydro-3H-2,3-benzodiazepine-3-carboxamide]",,,,
2060 nM,330 nM,,,"COc1cc2c(cc1OC)C(c1ccc(-c3c(C)noc3C)cc1)=NN(C(C)=O)C(C)C2 (racemic) [Example 246, (±)-1-{1-[4-(3,5-dimethyl-1,2-oxazol-4-yl)phenyl]-7,8-dimethoxy-4-methyl-4,5-dihydro-3H-2,3-benzodiazepin-3-yl}ethanone]",,,,
,770 nM,,3310 nM,CNC(=O)N1N=C(c2ccc(Cl)cc2)c2cc(OCCN3CCCC3)ccc2CC1C (stereo not shown) [Example 33],,,,
80 nM,40 nM,,,"CNC(=O)N1N=C(c2ccc(N3CCC(OC)CC3)cc2)c2cc(OC)c(OC)cc2C[C@@H]1C [Example 179.2, (4S)-7,8-dimethoxy-1-[4-(4-methoxypiperidin-1-yl)phenyl]-N,4-dimethyl-4,5-dihydro-3H-2,3-benzodiazepine-3-carboxamide]",,,,

# Reference: US9890147B2 (BAYER PHARMA AKTIENGESELLSCHAFT, priority 2012, dated 2018)
